Measurements taken from ChEMBL document CHEMBL4800731, “Data for DCP probe JNJ-65355394” (2021).

Tests used:
Details in all cases: Compound concentration 10.0 uM
[1] = molecular target: T1, 5-hydroxytryptamine receptor 1A (Homo sapiens) (UniProt P08908)
T1 sequence (whole entry): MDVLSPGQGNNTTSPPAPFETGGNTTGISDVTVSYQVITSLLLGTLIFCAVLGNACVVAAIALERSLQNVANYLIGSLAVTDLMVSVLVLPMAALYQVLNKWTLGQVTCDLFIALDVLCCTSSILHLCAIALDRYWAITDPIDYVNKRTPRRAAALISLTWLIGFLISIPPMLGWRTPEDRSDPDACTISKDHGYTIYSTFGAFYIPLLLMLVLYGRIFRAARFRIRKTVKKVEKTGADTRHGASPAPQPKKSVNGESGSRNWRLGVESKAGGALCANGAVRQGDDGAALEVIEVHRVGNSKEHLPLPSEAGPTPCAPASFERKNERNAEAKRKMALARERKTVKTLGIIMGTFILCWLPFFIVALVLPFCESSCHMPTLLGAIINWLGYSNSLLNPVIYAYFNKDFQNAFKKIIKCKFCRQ

[2] = molecular target: 5-hydroxytryptamine receptor 1B (Homo sapiens) (UniProt P28222)
[3] = molecular target: 5-hydroxytryptamine receptor 2A (Homo sapiens) (UniProt P28223)
Chain of 5-hydroxytryptamine receptor 2A (Homo sapiens) (P28223 whole entry): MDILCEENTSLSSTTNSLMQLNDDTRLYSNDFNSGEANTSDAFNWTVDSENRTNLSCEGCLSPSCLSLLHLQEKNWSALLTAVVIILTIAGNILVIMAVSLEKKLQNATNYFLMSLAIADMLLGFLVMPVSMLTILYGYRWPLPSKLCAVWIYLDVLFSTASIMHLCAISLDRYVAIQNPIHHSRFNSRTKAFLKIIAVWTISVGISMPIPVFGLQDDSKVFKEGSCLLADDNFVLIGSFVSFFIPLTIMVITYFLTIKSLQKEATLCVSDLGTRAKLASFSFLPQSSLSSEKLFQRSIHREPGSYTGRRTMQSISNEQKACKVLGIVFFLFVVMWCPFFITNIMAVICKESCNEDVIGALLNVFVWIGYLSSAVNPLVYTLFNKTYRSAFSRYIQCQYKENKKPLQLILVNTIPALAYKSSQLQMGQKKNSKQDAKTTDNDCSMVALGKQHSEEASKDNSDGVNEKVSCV

[4] = molecular target: 5-hydroxytryptamine receptor 2B (Homo sapiens) (UniProt P41595)
Chain of 5-hydroxytryptamine receptor 2B (Homo sapiens) (P41595 whole entry): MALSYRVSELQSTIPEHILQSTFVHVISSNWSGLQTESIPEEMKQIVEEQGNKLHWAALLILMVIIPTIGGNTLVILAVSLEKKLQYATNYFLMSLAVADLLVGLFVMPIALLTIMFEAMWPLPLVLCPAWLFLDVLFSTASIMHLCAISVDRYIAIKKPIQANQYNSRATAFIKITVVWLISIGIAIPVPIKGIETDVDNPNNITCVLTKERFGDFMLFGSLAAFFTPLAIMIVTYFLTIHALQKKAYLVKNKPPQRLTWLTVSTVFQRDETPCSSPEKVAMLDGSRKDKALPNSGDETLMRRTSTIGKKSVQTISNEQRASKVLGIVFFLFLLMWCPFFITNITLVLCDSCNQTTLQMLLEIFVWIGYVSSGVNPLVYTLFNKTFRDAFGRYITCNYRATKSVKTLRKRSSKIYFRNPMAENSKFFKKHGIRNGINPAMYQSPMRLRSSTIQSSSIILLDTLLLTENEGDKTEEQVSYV

[5] = molecular target: 5-hydroxytryptamine receptor 2C (Homo sapiens) (UniProt P28335)
Chain of 5-hydroxytryptamine receptor 2C (Homo sapiens) (P28335 whole entry): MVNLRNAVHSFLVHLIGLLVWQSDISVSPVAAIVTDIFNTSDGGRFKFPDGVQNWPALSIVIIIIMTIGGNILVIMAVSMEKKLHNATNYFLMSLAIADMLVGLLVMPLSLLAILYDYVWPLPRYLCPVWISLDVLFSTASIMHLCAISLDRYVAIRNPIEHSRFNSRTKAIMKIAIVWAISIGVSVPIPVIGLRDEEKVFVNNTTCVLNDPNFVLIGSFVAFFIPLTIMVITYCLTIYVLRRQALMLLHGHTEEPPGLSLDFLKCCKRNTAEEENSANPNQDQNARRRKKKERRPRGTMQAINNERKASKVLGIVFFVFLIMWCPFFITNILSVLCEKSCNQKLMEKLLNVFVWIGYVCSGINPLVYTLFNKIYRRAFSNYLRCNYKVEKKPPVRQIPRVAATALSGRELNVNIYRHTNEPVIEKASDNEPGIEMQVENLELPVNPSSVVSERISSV

[6] = molecular target: 5-hydroxytryptamine receptor 6 (Homo sapiens) (UniProt P50406)
[7] = molecular target: D(2) dopamine receptor (Homo sapiens) (UniProt P14416)
[8] = molecular target: D(4) dopamine receptor (Homo sapiens) (UniProt P21917)
Chain of D(4) dopamine receptor (Homo sapiens) (P21917 whole entry): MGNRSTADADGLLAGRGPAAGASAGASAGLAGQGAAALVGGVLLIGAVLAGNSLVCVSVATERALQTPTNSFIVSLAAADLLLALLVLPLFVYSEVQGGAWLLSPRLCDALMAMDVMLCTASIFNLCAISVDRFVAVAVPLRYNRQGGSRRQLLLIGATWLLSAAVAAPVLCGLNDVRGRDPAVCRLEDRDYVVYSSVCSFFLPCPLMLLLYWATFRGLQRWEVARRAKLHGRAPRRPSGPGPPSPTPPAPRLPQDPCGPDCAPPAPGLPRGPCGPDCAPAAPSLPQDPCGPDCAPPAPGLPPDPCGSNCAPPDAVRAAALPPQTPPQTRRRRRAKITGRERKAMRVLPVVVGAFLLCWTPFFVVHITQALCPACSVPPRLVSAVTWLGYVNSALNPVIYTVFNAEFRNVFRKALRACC

[9] = molecular target: Sodium-dependent serotonin transporter (Homo sapiens, UniProt P31645)
[10] = molecular target: Sodium-dependent noradrenaline transporter (Homo sapiens) (UniProt P23975)
Chain of Sodium-dependent noradrenaline transporter (Homo sapiens) (P23975 whole entry): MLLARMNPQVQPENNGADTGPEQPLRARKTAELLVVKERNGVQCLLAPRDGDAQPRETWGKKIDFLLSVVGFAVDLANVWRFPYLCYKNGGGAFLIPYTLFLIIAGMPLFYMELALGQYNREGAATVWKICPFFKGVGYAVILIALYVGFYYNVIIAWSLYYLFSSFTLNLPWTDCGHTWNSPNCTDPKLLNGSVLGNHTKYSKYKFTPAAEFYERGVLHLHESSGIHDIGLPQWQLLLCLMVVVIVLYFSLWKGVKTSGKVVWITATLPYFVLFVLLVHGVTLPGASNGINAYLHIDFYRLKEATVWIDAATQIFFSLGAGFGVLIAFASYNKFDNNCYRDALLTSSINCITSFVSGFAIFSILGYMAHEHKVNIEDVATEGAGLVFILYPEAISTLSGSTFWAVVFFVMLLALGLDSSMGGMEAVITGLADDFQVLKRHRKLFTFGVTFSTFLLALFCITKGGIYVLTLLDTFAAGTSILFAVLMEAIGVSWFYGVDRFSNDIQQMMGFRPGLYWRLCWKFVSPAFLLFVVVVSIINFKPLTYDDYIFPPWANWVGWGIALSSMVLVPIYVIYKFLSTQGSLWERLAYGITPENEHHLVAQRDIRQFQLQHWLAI

[11] = molecular target: Delta-type opioid receptor (Homo sapiens) (UniProt P41143)
[12] = molecular target: Kappa-type opioid receptor (Homo sapiens, UniProt P41145)
[13] = molecular target: Histamine H3 receptor (Homo sapiens) (UniProt Q9Y5N1)
Chain of Histamine H3 receptor (Homo sapiens) (Q9Y5N1 whole entry): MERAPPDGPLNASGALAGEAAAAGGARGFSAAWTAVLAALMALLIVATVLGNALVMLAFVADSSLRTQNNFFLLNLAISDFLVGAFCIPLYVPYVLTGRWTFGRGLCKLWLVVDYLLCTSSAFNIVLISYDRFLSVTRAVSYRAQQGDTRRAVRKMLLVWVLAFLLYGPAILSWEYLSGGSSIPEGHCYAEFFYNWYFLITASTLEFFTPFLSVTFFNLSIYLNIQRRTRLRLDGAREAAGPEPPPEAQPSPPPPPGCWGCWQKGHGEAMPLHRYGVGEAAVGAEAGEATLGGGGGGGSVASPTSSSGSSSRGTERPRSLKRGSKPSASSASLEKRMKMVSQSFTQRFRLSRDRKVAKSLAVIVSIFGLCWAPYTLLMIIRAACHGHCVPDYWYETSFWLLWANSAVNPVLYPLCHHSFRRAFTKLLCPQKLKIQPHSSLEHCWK

[14] = molecular target: Alpha-1A adrenergic receptor (Homo sapiens) (UniProt P35348)
Chain of Alpha-1A adrenergic receptor (Homo sapiens) (P35348 whole entry): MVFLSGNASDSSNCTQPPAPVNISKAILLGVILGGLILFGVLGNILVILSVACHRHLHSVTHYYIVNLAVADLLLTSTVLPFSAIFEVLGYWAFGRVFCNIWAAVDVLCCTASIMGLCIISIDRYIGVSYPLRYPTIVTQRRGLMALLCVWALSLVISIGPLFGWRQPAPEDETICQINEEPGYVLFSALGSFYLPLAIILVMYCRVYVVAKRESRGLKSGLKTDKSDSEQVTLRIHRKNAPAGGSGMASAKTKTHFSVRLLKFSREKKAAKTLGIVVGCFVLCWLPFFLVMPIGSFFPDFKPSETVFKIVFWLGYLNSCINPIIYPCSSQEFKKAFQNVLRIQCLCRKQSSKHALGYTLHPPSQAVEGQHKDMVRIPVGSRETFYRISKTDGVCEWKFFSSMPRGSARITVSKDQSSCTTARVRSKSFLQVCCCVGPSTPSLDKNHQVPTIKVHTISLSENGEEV

[15] = molecular target: T2, Alpha-1B adrenergic receptor (Homo sapiens) (UniProt P35368)
T2 sequence (whole entry): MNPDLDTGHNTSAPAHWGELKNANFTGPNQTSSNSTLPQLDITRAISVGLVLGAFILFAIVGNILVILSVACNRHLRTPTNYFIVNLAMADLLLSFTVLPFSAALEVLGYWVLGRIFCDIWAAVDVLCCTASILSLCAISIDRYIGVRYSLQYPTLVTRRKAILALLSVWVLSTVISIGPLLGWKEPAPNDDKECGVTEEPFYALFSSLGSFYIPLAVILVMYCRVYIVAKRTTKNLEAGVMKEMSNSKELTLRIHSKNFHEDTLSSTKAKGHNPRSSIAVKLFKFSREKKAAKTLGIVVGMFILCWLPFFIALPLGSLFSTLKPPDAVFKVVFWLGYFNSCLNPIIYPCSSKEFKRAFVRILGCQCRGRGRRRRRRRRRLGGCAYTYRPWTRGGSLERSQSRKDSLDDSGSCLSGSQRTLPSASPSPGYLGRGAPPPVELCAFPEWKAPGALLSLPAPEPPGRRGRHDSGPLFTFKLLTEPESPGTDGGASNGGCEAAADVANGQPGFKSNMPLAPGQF

[16] = molecular target: Alpha-2A adrenergic receptor (Homo sapiens) (UniProt P08913)
Chain of Alpha-2A adrenergic receptor (Homo sapiens) (P08913 whole entry): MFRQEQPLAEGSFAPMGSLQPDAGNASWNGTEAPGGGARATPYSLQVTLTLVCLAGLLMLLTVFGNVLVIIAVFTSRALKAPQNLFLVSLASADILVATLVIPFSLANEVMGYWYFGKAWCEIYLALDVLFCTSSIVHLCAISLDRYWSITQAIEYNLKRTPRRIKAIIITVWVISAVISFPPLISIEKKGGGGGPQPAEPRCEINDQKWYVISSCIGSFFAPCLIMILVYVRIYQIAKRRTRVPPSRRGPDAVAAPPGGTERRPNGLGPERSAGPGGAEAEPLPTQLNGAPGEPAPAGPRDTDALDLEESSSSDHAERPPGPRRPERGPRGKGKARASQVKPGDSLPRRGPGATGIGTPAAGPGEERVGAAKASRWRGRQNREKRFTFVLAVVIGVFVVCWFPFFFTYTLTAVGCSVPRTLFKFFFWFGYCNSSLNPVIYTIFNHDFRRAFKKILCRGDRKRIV

[17] = molecular target: Alpha-2C adrenergic receptor (Homo sapiens) (UniProt P18825)
Chain of Alpha-2C adrenergic receptor (Homo sapiens) (P18825 whole entry): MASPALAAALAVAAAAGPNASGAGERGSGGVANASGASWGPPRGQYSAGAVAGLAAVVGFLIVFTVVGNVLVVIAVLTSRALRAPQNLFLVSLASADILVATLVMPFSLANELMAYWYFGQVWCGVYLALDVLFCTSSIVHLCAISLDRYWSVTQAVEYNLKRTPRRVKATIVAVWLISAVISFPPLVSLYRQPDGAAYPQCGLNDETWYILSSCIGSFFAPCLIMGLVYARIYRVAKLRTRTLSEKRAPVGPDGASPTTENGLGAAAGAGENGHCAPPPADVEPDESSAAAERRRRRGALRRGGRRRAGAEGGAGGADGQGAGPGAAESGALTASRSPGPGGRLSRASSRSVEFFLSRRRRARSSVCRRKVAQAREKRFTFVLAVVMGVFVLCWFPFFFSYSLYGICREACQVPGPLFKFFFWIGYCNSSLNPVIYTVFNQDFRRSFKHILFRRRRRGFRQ

[18] = molecular target: Beta-2 adrenergic receptor (Homo sapiens) (UniProt P07550)
Chain of Beta-2 adrenergic receptor (Homo sapiens) (P07550 whole entry, looked up): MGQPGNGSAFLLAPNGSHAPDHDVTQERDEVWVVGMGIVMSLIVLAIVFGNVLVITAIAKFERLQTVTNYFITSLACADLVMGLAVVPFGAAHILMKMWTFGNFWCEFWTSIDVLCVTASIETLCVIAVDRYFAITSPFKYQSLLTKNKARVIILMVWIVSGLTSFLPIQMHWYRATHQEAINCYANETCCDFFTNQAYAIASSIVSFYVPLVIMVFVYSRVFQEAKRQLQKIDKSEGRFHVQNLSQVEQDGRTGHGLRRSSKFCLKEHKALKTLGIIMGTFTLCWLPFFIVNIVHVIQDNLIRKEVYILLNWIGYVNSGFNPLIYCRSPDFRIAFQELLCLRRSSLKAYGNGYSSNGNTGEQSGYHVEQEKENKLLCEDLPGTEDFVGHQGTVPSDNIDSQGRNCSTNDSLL

[19] = molecular target: T3, Muscarinic acetylcholine receptor M2 (Homo sapiens) (UniProt P08172)
T3 sequence (whole entry): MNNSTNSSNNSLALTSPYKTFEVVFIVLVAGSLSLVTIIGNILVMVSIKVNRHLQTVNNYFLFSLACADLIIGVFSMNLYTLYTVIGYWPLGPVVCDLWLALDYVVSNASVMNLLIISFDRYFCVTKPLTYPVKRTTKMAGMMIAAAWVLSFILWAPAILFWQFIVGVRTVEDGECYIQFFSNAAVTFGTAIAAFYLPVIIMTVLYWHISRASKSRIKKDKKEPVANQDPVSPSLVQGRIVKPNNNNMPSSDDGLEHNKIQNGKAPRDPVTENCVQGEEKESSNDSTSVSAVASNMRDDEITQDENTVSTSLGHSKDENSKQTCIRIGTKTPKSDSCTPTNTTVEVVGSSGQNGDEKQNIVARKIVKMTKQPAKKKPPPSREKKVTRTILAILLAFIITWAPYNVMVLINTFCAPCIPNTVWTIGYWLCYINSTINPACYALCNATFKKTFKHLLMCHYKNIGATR

inhibition [1]	inhibition [2]	inhibition [3]	inhibition [4]	inhibition [5]	inhibition [6]	inhibition [7]	inhibition [8]	inhibition [9]	inhibition [10]	inhibition [11]	inhibition [12]	inhibition [13]	inhibition [14]	inhibition [15]	inhibition [16]	inhibition [17]	inhibition [18]	inhibition [19]	Structure (SMILES)
22.2%	-2.53%	-2.94%	6.7%	15.2%	14.3%	0.63%	3.53%	7.21%	12.7%	11.8%	75.1%	10.8%	2.36%	-5.2%	8.68%	31.9%	-5.16%	9.54%	CC(=O)Nc1ncc(CN2CCC[C@H](Cc3cc(C)nc(C)c3)C2)s1 [JNJ-65355394]
12.3%	4.01%	6.45%	17.9%	16.3%	25.6%	8.04%	6.82%	52.3%	17.8%	8.67%	17.9%	27.1%	-1.89%	-3.57%	31.7%	36.5%	-8.1%	8.65%	CC(=O)Nc1nc(CN2CCC[C@H](Cc3cc(C)nc(C)c3)C2)cs1 [JNJ-73924149]
